Experimental data taken from patent publication US6977270B2, “Tocotrienolquinone cyclization product with an anti-hypercholesterol effect” (BASF Aktiengesellschaft, priority 2000, dated 2005).

Test system: Cholesterol Synthesis in HepG2 Cells
Test: Determination of cholesterol synthesis in HepG2 cells (14C-acetate incorporation into the non-saponifiable lipid/sterol fraction)
Format: cell-based
Conditions: mean of three
Experimental: Determination of Cholesterol Synthesis in HepG2 Cells (cf. Fahrner, J. et al., Eur. J. Biochem. 213: 1067-1073 (1993); Gebhardt, R., Lipids 28: 613-619 (1993); Pill, J. et al., Z. Anal. Chem. 332: 512-513 (1985)
To detect an effect on cholesterol biosynthesis by test substances, HepG2 cell cultures were used. These cells were cultured up to confluence in 35 mm 6-well cell culture incubation dishes in DMEM medium (Gibco, Eggenstein, Germany) with 2 mM gentamin, 10% fetal calf serum, 40 U/ml of streptomycin and 50 U/ml of penicillin. Frozen cells were cultured and passaged for one week before use. The confluent cells were then incubated in serum-free Williams Medium E for 4 hours at 37° C. with the test substances. ^14C-Acetate (18.5 kBq/ml; 0.5 μCi/ml) was then added to the solutions. The test substances were diluted in DMSO and used at the concentrations specified. […]
Incorporation of ^14C-acetate into the non-saponifiable lipid fraction (sterol fraction) was determined by the following method: 1.4 ml of homogenates were incubated with 2.8 ml of 0.5 M KOH in EtOH with shaking for 1 hour at 70° C. […] The ^14C activity in the samples was determined, after addition of 10 ml of scintillation solution (Ultima Gold®, Packard, Merident, Conn.) in a scintillation counter. The measured values shown are to be understood as means of three independent culture dishes per test solution. […]

What does the source list for `CC(C)=CCC/C(C)=C/CC/C(C)=C/CC[C@]1(C)CCc2cc(O)c(C)c(C)c2O1` [R-γ-Tocotrienol]?
inhibition of 14C-acetate incorporation (concentration 5×10^−6 M, relative to DMSO control (100%)): approximately 20%; maximum significant inhibition of 14C-acetate incorporation (concentrations ≧5×10^−5 M, relative to DMSO control): approximately 50%
